Source: PubChem BioAssay AID1963841 (Molecular Pharmacology Branch, DTP, NCI, 2024)

System: 439559-082-T-J2-PDC spheroid viability
Test: Anticancer human tumor 439559-082-T-J2-PDC patient-derived colon adenocarcinoma cell line growth inhibition [POLQ]
Conditions: spheroids with HUVEC and MSC; for IC50: curve of first compound; for viability, T/C: stronger effect = lower value
Method in brief: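 Patient-derived tumour cells were co-cultured with HUVEC and mesenchymal stem cells as multicellular spheroids at 37 °C. They were treated with POLQ inhibitors (novobiocin, ART-558, RP6685) alone or combined with other agents. Top concentrations were at or near clinical Cmax (otherwise 10 microM; SN-38 at 1 microM), decreasing in half-log steps.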

[1] = second compound 0.0316 µM, first compound 0.0316 µM
[2] = second compound 0.0316 µM, first compound 0.1 µM
[3] = second compound 0.0316 µM, first compound 0.316 µM
[4] = second compound 0.0316 µM, first compound 1 µM
[5] = second compound 0.0316 µM, first compound 3.16 µM
[6] = second compound 0.0316 µM, first compound 10 µM
[7] = second compound 0.1 µM, first compound 0.0316 µM
[8] = second compound 0.1 µM, first compound 0.1 µM
[9] = second compound 0.1 µM, first compound 0.316 µM
[10] = second compound 0.1 µM, first compound 1 µM
[11] = second compound 0.1 µM, first compound 3.16 µM
[12] = second compound 0.1 µM, first compound 10 µM
[13] = second compound 0.316 µM, first compound 0.0316 µM
[14] = second compound 0.316 µM, first compound 0.1 µM
[15] = second compound 0.316 µM, first compound 0.316 µM
[16] = second compound 0.316 µM, first compound 1 µM
[17] = second compound 0.316 µM, first compound 3.16 µM
[18] = second compound 0.316 µM, first compound 10 µM
[19] = second compound 1 µM, first compound 0.0316 µM
[20] = second compound 1 µM, first compound 0.1 µM
[21] = second compound 1 µM, first compound 0.316 µM
[22] = second compound 1 µM, first compound 1 µM
[23] = second compound 1 µM, first compound 3.16 µM
[24] = second compound 1 µM, first compound 10 µM
[25] = second compound 3.16 µM, first compound 0.0316 µM
[26] = second compound 3.16 µM, first compound 0.1 µM
[27] = second compound 3.16 µM, first compound 0.316 µM
[28] = second compound 3.16 µM, first compound 1 µM
[29] = second compound 3.16 µM, first compound 3.16 µM
[30] = second compound 3.16 µM, first compound 10 µM
[31] = second compound 10 µM, first compound 0.0316 µM
[32] = second compound 10 µM, first compound 0.1 µM
[33] = second compound 10 µM, first compound 0.316 µM
[34] = second compound 10 µM, first compound 1 µM
[35] = second compound 10 µM, first compound 3.16 µM
[36] = second compound 10 µM, first compound 10 µM
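Also: spheroids exposed to compounds for seven days before readout.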
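For viability, T/C in this document: 100% = DMSO vehicle control viability.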

O=c1[nH]cc(F)c(=O)[nH]1 + Nc1ccc(C#CCN(C(=O)Cc2ncc(C(F)(F)F)cc2C(F)(F)F)c2ccc(F)cc2)nn1
IC50 (second compound 0.0316 µM): > 10 µM | IC50 (second compound 0.1 µM): > 10 µM | IC50 (second compound 0.316 µM): > 10 µM | IC50 (second compound 1 µM): > 10 µM | IC50 (second compound 3.16 µM): > 10 µM | IC50 (second compound 10 µM): > 10 µM | viability, T/C [1]: 105% | viability, T/C [2]: 112% | viability, T/C [3]: 101% | viability, T/C [4]: 98% | viability, T/C [5]: 90.2% | viability, T/C [6]: 87.5% | viability, T/C [7]: 115% | viability, T/C [8]: 97.4% | viability, T/C [9]: 91.4% | viability, T/C [10]: 92% | viability, T/C [11]: 86.5% | viability, T/C [12]: 82.5% | viability, T/C [13]: 116% | viability, T/C [14]: 104% | viability, T/C [15]: 105% | viability, T/C [16]: 95.9% | viability, T/C [17]: 83.1% | viability, T/C [18]: 85.3% | viability, T/C [19]: 104% | viability, T/C [20]: 94.8% | viability, T/C [21]: 101% | viability, T/C [22]: 81.9% | viability, T/C [23]: 84.5% | viability, T/C [24]: 81.4% | viability, T/C [25]: 103% | viability, T/C [26]: 99.9% | viability, T/C [27]: 84.2% | viability, T/C [28]: 85.5% | viability, T/C [29]: 86.6% | viability, T/C [30]: 80.5% | viability, T/C [31]: 109% | viability, T/C [32]: 91.3% | viability, T/C [33]: 102% | viability, T/C [34]: 83.4% | viability, T/C [35]: 87.9% | viability, T/C [36]: 78.7%

COc1ccc([C@@H](O)c2cc(-c3ncnc4cc(N5CCOCC5)ccc34)c(F)cc2Cl)nn1 + Nc1ccc(C#CCN(C(=O)Cc2ncc(C(F)(F)F)cc2C(F)(F)F)c2ccc(F)cc2)nn1
IC50 (second compound 0.0316 µM): > 10 µM | IC50 (second compound 0.1 µM): > 10 µM | IC50 (second compound 0.316 µM): > 10 µM | IC50 (second compound 1 µM): > 10 µM | IC50 (second compound 3.16 µM): > 10 µM | IC50 (second compound 10 µM): > 10 µM | viability, T/C [1]: 105% | viability, T/C [2]: 86% | viability, T/C [3]: 89.1% | viability, T/C [4]: 89.4% | viability, T/C [5]: 84% | viability, T/C [6]: 87.5% | viability, T/C [7]: 102% | viability, T/C [8]: 93.2% | viability, T/C [9]: 92.7% | viability, T/C [10]: 88.1% | viability, T/C [11]: 78% | viability, T/C [12]: 87.3% | viability, T/C [13]: 119% | viability, T/C [14]: 105% | viability, T/C [15]: 104% | viability, T/C [16]: 79.5% | viability, T/C [17]: 88.9% | viability, T/C [18]: 81% | viability, T/C [19]: 95% | viability, T/C [20]: 106% | viability, T/C [21]: 85.2% | viability, T/C [22]: 83.7% | viability, T/C [23]: 86.1% | viability, T/C [24]: 86.3% | viability, T/C [25]: 90.1% | viability, T/C [26]: 107% | viability, T/C [27]: 90.7% | viability, T/C [28]: 80.2% | viability, T/C [29]: 83.7% | viability, T/C [30]: 87.8% | viability, T/C [31]: 94.1% | viability, T/C [32]: 90% | viability, T/C [33]: 90.1% | viability, T/C [34]: 99.7% | viability, T/C [35]: 81.8% | viability, T/C [36]: 77.4%

CC1COCCN1c1cc(C2(O)CC3CCC(C2)O3)c2cnn(-c3ccn[nH]3)c2n1 (stereo unspecified) + Cc1cccc(N(C)C(=O)C2C(O)CCN2c2nc(C)cc(C(F)(F)F)c2C#N)c1
IC50 (second compound 0.0316 µM): 3.84 µM | IC50 (second compound 0.1 µM): 5.32 µM | IC50 (second compound 0.316 µM): 3.18 µM | IC50 (second compound 1 µM): 4.98 µM | IC50 (second compound 3.16 µM): 2.87 µM | IC50 (second compound 10 µM): 2.93 µM | viability, T/C [1]: 96.4% | viability, T/C [2]: 79.1% | viability, T/C [3]: 71.1% | viability, T/C [4]: 60.9% | viability, T/C [5]: 47.7% | viability, T/C [6]: 46.4% | viability, T/C [7]: 95.6% | viability, T/C [8]: 86.1% | viability, T/C [9]: 66% | viability, T/C [10]: 60.1% | viability, T/C [11]: 49.3% | viability, T/C [12]: 49% | viability, T/C [13]: 94.5% | viability, T/C [14]: 79.4% | viability, T/C [15]: 70.2% | viability, T/C [16]: 57% | viability, T/C [17]: 48.4% | viability, T/C [18]: 46.6% | viability, T/C [19]: 95.5% | viability, T/C [20]: 78.4% | viability, T/C [21]: 69.3% | viability, T/C [22]: 61% | viability, T/C [23]: 51.5% | viability, T/C [24]: 46.8% | viability, T/C [25]: 91.3% | viability, T/C [26]: 80.8% | viability, T/C [27]: 66.7% | viability, T/C [28]: 57% | viability, T/C [29]: 48.9% | viability, T/C [30]: 46.1% | viability, T/C [31]: 80.9% | viability, T/C [32]: 73.7% | viability, T/C [33]: 65.5% | viability, T/C [34]: 55.6% | viability, T/C [35]: 51.6% | viability, T/C [36]: 41.1%
